Data reported in the supplement of paper PMC10307832.

Columns and labels:
Test in all cases: relative viability (nuclei count vs DMSO), 5 days (fraction); higher = more cells survive
COR-L 105 = tested on: COR-L 105
Method in brief: (§1)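 Five library-drug doses in √10 steps were combined with a fixed anchor-drug dose, or a single drug was given alone, by pin tool to lung cancer cell lines in 1536-well plates the day after seeding. Nuclei were stained and counted after 5 days. Relative viability is the nuclei count in treated wells over that in vehicle wells, taken as the median of duplicate plates.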

COR-L23 = tested on: COR-L23
Method in brief: as §1

EPLC-272H = tested on: EPLC-272H
Method in brief: as §1

H3255 = tested on: H3255
Method in brief: as §1

HCC-15 = tested on: HCC-15
Method in brief: as §1

HCC-827 = tested on: HCC-827
Method in brief: as §1

LCLC-103H = tested on: LCLC-103H
Method in brief: as §1

NCI-H1437 = tested on: NCI-H1437
Method in brief: as §1

NCI-H1650 = tested on: NCI-H1650
Method in brief: as §1

NCI-H1651 = tested on: NCI-H1651
Method in brief: as §1

NCI-H1755 = tested on: NCI-H1755
Method in brief: as §1

NCI-H1792 = tested on: NCI-H1792
Method in brief: as §1

NCI-H1944 = tested on: NCI-H1944
Method in brief: as §1

NCI-H1975 = tested on: NCI-H1975
Method in brief: as §1

NCI-H2087 = tested on: NCI-H2087
Method in brief: as §1

NCI-H358 = tested on: NCI-H358
Method in brief: as §1

NCI-H520 = tested on: NCI-H520
Method in brief: as §1

NCI-H647 = tested on: NCI-H647
Method in brief: as §1

NCI-H650 = tested on: NCI-H650
Method in brief: as §1

NCI-H661 = tested on: NCI-H661
Method in brief: as §1

NCI-H727 = tested on: NCI-H727
Method in brief: as §1

**Q.** For COCC1(CO)C(=O)C2CCN1CC2 (centres undefined) [PRIMA-1MET] + CS(=O)(=O)N1CCN(Cc2cc3nc(-c4cccc5[nH]ncc45)nc(N4CCOCC4)c3s2)CC1 [Pictilisib] (partner 1 µM), which relative viability (COR-L 105; first compound 0.2 µM) is on record?
**A.** 0.387

**Q.** What about the relative viability (COR-L 105; first compound 0.6325 µM) of the same compound?
**A.** 0.346

**Q.** And the relative viability (COR-L 105; first compound 2 µM)?
**A.** 0.324

**Q.** And the relative viability (COR-L 105; first compound 6.325 µM)?
**A.** 0.245

**Q.** What about the relative viability (COR-L 105; first compound 20 µM) of the same compound?
**A.** 0.2

**Q.** What about the relative viability (COR-L23; first compound 0.2 µM) of the same compound?
**A.** 0.77

**Q.** What about the relative viability (COR-L23; first compound 0.6325 µM) of the same compound?
**A.** 0.76

**Q.** What about the relative viability (COR-L23; first compound 2 µM) of the same compound?
**A.** 0.765

**Q.** And the relative viability (COR-L23; first compound 6.325 µM)?
**A.** 0.786

**Q.** What about the relative viability (COR-L23; first compound 20 µM) of the same compound?
**A.** 0.0196

**Q.** What about the relative viability (EPLC-272H; first compound 0.2 µM) of the same compound?
**A.** 0.295

**Q.** What about the relative viability (EPLC-272H; first compound 0.6325 µM) of the same compound?
**A.** 0.251

**Q.** What about the relative viability (EPLC-272H; first compound 2 µM) of the same compound?
**A.** 0.234

**Q.** What about the relative viability (EPLC-272H; first compound 6.325 µM) of the same compound?
**A.** 0.305

**Q.** And the relative viability (EPLC-272H; first compound 20 µM)?
**A.** 0.124

**Q.** And the relative viability (H3255; first compound 0.2 µM)?
**A.** 0.493

**Q.** And the relative viability (H3255; first compound 0.6325 µM)?
**A.** 0.437

**Q.** And the relative viability (H3255; first compound 2 µM)?
**A.** 0.466

**Q.** And the relative viability (H3255; first compound 6.325 µM)?
**A.** 0.469

**Q.** What about the relative viability (H3255; first compound 20 µM) of the same compound?
**A.** 0.406

**Q.** And the relative viability (HCC-15; first compound 0.2 µM)?
**A.** 0.511

**Q.** What about the relative viability (HCC-15; first compound 0.6325 µM) of the same compound?
**A.** 0.582

**Q.** And the relative viability (HCC-15; first compound 2 µM)?
**A.** 0.568

**Q.** What about the relative viability (HCC-15; first compound 6.325 µM) of the same compound?
**A.** 0.638

**Q.** And the relative viability (HCC-15; first compound 20 µM)?
**A.** 0.618

**Q.** What about the relative viability (HCC-827; first compound 0.2 µM) of the same compound?
**A.** 1.33

**Q.** And the relative viability (HCC-827; first compound 0.6325 µM)?
**A.** 0.907

**Q.** And the relative viability (HCC-827; first compound 2 µM)?
**A.** 0.863

**Q.** What about the relative viability (HCC-827; first compound 6.325 µM) of the same compound?
**A.** 1.08

**Q.** What about the relative viability (HCC-827; first compound 20 µM) of the same compound?
**A.** 0.81

**Q.** What about the relative viability (LCLC-103H; first compound 0.2 µM) of the same compound?
**A.** 0.612

**Q.** What about the relative viability (LCLC-103H; first compound 0.6325 µM) of the same compound?
**A.** 0.583

**Q.** And the relative viability (LCLC-103H; first compound 2 µM)?
**A.** 0.457

**Q.** And the relative viability (LCLC-103H; first compound 6.325 µM)?
**A.** 0.583

**Q.** And the relative viability (LCLC-103H; first compound 20 µM)?
**A.** 0.478

**Q.** And the relative viability (NCI-H1437; first compound 0.2 µM)?
**A.** 0.463

**Q.** And the relative viability (NCI-H1437; first compound 0.6325 µM)?
**A.** 0.481

**Q.** What about the relative viability (NCI-H1437; first compound 2 µM) of the same compound?
**A.** 0.356

**Q.** And the relative viability (NCI-H1437; first compound 6.325 µM)?
**A.** 0.466

**Q.** And the relative viability (NCI-H1437; first compound 20 µM)?
**A.** 0.412

**Q.** What about the relative viability (NCI-H1650; first compound 0.2 µM) of the same compound?
**A.** 0.618

**Q.** And the relative viability (NCI-H1650; first compound 0.6325 µM)?
**A.** 0.483

**Q.** And the relative viability (NCI-H1650; first compound 2 µM)?
**A.** 0.311

**Q.** And the relative viability (NCI-H1650; first compound 6.325 µM)?
**A.** 0.527

**Q.** What about the relative viability (NCI-H1650; first compound 20 µM) of the same compound?
**A.** 0.209

**Q.** And the relative viability (NCI-H1651; first compound 0.2 µM)?
**A.** 0.662

**Q.** And the relative viability (NCI-H1651; first compound 0.6325 µM)?
**A.** 0.583

**Q.** What about the relative viability (NCI-H1651; first compound 2 µM) of the same compound?
**A.** 0.505

**Q.** And the relative viability (NCI-H1651; first compound 6.325 µM)?
**A.** 0.596

**Q.** And the relative viability (NCI-H1651; first compound 20 µM)?
**A.** 0.44

**Q.** What about the relative viability (NCI-H1755; first compound 0.2 µM) of the same compound?
**A.** 0.187

**Q.** And the relative viability (NCI-H1755; first compound 0.6325 µM)?
**A.** 0.421

**Q.** What about the relative viability (NCI-H1755; first compound 2 µM) of the same compound?
**A.** 0.206

**Q.** What about the relative viability (NCI-H1755; first compound 6.325 µM) of the same compound?
**A.** 0.391

**Q.** And the relative viability (NCI-H1755; first compound 20 µM)?
**A.** 0.3

**Q.** What about the relative viability (NCI-H1792; first compound 0.2 µM) of the same compound?
**A.** 0.227

**Q.** What about the relative viability (NCI-H1792; first compound 0.6325 µM) of the same compound?
**A.** 0.223

**Q.** What about the relative viability (NCI-H1792; first compound 2 µM) of the same compound?
**A.** 0.222

**Q.** And the relative viability (NCI-H1792; first compound 6.325 µM)?
**A.** 0.327

**Q.** What about the relative viability (NCI-H1792; first compound 20 µM) of the same compound?
**A.** 0.271

**Q.** What about the relative viability (NCI-H1944; first compound 0.2 µM) of the same compound?
**A.** 0.332

**Q.** What about the relative viability (NCI-H1944; first compound 0.6325 µM) of the same compound?
**A.** 0.324

**Q.** And the relative viability (NCI-H1944; first compound 6.325 µM)?
**A.** 0.328

**Q.** And the relative viability (NCI-H1944; first compound 20 µM)?
**A.** 0.363

**Q.** What about the relative viability (NCI-H1975; first compound 0.2 µM) of the same compound?
**A.** 0.294

**Q.** What about the relative viability (NCI-H1975; first compound 0.6325 µM) of the same compound?
**A.** 0.291

**Q.** And the relative viability (NCI-H1975; first compound 2 µM)?
**A.** 0.27

**Q.** And the relative viability (NCI-H1975; first compound 6.325 µM)?
**A.** 0.311

**Q.** What about the relative viability (NCI-H1975; first compound 20 µM) of the same compound?
**A.** 0.248

**Q.** And the relative viability (NCI-H2087; first compound 0.2 µM)?
**A.** 0.413

**Q.** And the relative viability (NCI-H2087; first compound 0.6325 µM)?
**A.** 0.848

**Q.** What about the relative viability (NCI-H2087; first compound 2 µM) of the same compound?
**A.** 0.966

**Q.** And the relative viability (NCI-H2087; first compound 6.325 µM)?
**A.** 0.642

**Q.** And the relative viability (NCI-H2087; first compound 20 µM)?
**A.** 0.659

**Q.** What about the relative viability (NCI-H358; first compound 0.2 µM) of the same compound?
**A.** 0.392

**Q.** What about the relative viability (NCI-H358; first compound 0.6325 µM) of the same compound?
**A.** 0.318

**Q.** And the relative viability (NCI-H358; first compound 6.325 µM)?
**A.** 0.319

**Q.** What about the relative viability (NCI-H358; first compound 20 µM) of the same compound?
**A.** 0.0332

**Q.** And the relative viability (NCI-H520; first compound 0.2 µM)?
**A.** 0.345

**Q.** What about the relative viability (NCI-H520; first compound 0.6325 µM) of the same compound?
**A.** 0.285

**Q.** What about the relative viability (NCI-H520; first compound 6.325 µM) of the same compound?
**A.** 0.368

**Q.** And the relative viability (NCI-H520; first compound 20 µM)?
**A.** 0.13

**Q.** And the relative viability (NCI-H647; first compound 0.2 µM)?
**A.** 0.523

**Q.** And the relative viability (NCI-H647; first compound 0.6325 µM)?
**A.** 0.384

**Q.** What about the relative viability (NCI-H647; first compound 6.325 µM) of the same compound?
**A.** 0.412

**Q.** What about the relative viability (NCI-H647; first compound 20 µM) of the same compound?
**A.** 0.165

**Q.** What about the relative viability (NCI-H650; first compound 0.2 µM) of the same compound?
**A.** 1.14

**Q.** And the relative viability (NCI-H650; first compound 2 µM)?
**A.** 0.867

**Q.** And the relative viability (NCI-H650; first compound 6.325 µM)?
**A.** 1.06

**Q.** What about the relative viability (NCI-H650; first compound 20 µM) of the same compound?
**A.** 0.111

**Q.** And the relative viability (NCI-H661; first compound 0.2 µM)?
**A.** 0.396

**Q.** What about the relative viability (NCI-H661; first compound 0.6325 µM) of the same compound?
**A.** 0.238

**Q.** And the relative viability (NCI-H661; first compound 6.325 µM)?
**A.** 0.447

**Q.** And the relative viability (NCI-H661; first compound 20 µM)?
**A.** 0.262

**Q.** And the relative viability (NCI-H727; first compound 0.2 µM)?
**A.** 0.258

**Q.** What about the relative viability (NCI-H727; first compound 0.6325 µM) of the same compound?
**A.** 0.341

**Q.** What about the relative viability (NCI-H727; first compound 2 µM) of the same compound?
**A.** 0.241

**Q.** What about the relative viability (NCI-H727; first compound 6.325 µM) of the same compound?
**A.** 0.178

**Q.** And the relative viability (NCI-H727; first compound 20 µM)?
**A.** 0.109
